Measurements published in paper PMC4777262 (Pharmacology Research & Perspectives, 2016).

Assays:
[1] = molecular target: IMPDH1 (Homo sapiens, UniProt P20839); assay: spectrophotometric NADH production at […] nm; type: biochemical
[2] = molecular target: IMPDH2 (Homo sapiens, UniProt P12268); assay: spectrophotometric NADH production at […] nm; type: biochemical
Sequence of IMPDH2 (P12268 2-514): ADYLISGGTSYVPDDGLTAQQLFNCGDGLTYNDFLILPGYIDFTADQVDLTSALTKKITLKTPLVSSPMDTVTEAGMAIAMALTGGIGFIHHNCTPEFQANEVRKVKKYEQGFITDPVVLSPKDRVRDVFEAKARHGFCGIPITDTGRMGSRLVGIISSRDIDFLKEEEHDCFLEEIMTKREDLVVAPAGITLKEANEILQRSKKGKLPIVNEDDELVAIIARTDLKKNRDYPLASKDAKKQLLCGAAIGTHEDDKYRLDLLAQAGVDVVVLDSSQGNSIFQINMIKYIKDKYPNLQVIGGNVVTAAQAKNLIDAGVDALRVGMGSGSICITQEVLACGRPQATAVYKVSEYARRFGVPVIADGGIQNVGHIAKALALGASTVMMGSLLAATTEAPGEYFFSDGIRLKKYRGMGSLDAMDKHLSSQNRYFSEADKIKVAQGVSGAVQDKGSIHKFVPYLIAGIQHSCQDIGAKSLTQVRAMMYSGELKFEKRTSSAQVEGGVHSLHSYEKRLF

Sequence of IMPDH1 (P20839 2-514): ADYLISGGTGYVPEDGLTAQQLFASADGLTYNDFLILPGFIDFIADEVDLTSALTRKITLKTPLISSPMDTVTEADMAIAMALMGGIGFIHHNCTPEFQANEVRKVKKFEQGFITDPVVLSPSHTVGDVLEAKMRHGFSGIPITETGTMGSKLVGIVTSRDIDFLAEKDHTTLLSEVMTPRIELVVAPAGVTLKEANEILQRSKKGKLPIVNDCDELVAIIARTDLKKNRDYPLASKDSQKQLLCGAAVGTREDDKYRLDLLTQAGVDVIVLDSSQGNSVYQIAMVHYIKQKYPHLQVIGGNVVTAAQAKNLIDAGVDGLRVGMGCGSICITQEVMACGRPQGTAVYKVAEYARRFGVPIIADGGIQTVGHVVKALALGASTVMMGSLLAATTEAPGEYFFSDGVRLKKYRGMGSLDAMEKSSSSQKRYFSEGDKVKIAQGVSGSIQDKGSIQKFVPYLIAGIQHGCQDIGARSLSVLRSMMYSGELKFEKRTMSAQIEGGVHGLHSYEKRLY

Row | SMILES | IC50 [1] [nM] | IC50 [2] [nM]
1 | NC(=O)c1ncn([C@@H]2O[C@H](COP(=O)(O)O)[C@@H](O)[C@H]2O)c1O [FF‐10501RMP] | 29 ± 10.3 | 31.8 ± 5.6
2 | COc1c(C)c2c(c(O)c1C/C=C(\C)CCC(=O)O)C(=O)OC2 [Mycophenolic acid, reference compound] | 26.4 ± 1.5 | 
